Assay results: patent publication US7384966B2, “2-arylbenzothiazole derivatives” (Pharminxo Limited, priority 2004, dated 2008)
Read-outs that look alike come from different tables or passages of the source.

How the values were obtained:
[1] = tested on: MCF-7; test: MTT assay, 3 day exposure, MCF-7; format: cell-based; settings: Homo sapiens, read-out: GI50 values in cell lines, MCF-7
Description: (§1) A range of compounds were evaluated in MTT assays following 3 day exposure against a panel of two human breast cancer cell lines MCF-7 (ER+) and MDA 468 (ER−), and two colon cancer cell lines KM12 and HCC 2998. In general the breast cell lines were more sensitive to the agents and the MDA 468 line the most sensitive of the four (Table 2). The benchmark active compound was 5-fluoro-2-(3,4-dimethoxyphenyl)benzothiazole (1) with GI50 values<0.1 nM against the two breast cell lines. […] The most interesting series of compounds were those combining a 5-fluoro group with two oxygenated substituents in the 3′,4′-positions where minor, seemingly conservative, structural changes were associated with a dramatic variations in activity (when compared to 1). […] In summary, this in vitro screen led to the identification of the fluorinated 2-(3,4-dimethoxyphenyl)benzothiazole structure as a novel antitumor pharmacophore with the 5-fluoro analogue (1) astride a pinnacle of activity.
(§2) The assays/methods used to generate the results referred to herein are well known to those skilled in the art and therefore it has not been necessary to describe them in detail.

[2] = tested on: MDA 468; test: MTT assay, 3 day exposure, MDA 468; format: cell-based; settings: Homo sapiens, MDA 468 (breast), read-out: GI50 values in cell lines, MDA 468
Description: as §1, §2

[3] = tested on: KM 12; test: MTT assay, 3 day exposure, KM12; format: cell-based, human; settings: KM 12 (colon), read-out: GI50 values in cell lines, KM 12
Description: as §1, §2

[4] = tested on: MCF-7, MDA 468, KM12 and HCC 2998; test: MTT assay, panel of four cell lines, results in words; format: cell-based, human; settings: compared to compound 1
Description: as §1

[5] = tested on: HCC 2998; test: MTT assay, 3 day exposure, HCC 2998; format: cell-based; settings: Homo sapiens, read-out: GI50 values in cell lines, HCC 2998
Description: as §1, §2

[6] = MCF7, 72 h, MCF-7 (breast), MTT, 3 day exposure, triplicate
[7] = MCF7, MCF-7 (breast), value in nM
[8] = 72 h, MTT, 3 day exposure, triplicate
[9] = Homo sapiens, KM12, 72 h, MTT, 3 day exposure, triplicate
[10] = HCC 2998, 72 h, HCC 2998 (colon), MTT, 3 day exposure, triplicate

Structure (SMILES)	GI50 [1, 6] [nM]	GI50 [1, 7] [nM]	GI50 [2, 8] [nM]	GI50 [3, 9] [nM]	growth inhibitory potency in words [4]	melting point [°C]	GI50 [5, 10] [nM]	GI50 ([2]; value in nM) [nM]	GI50 ([3]; value in nM) [nM]	GI50 ([5]; HCC 2998, HCC 2998 (colon), value in nM) [nM]
CCOc1ccc(-c2nc3cc(F)ccc3s2)cc1OCC [Compound 46, 2-(3,4-Diethoxyphenyl)-5-fluorobenzothiazole]	0.7	0.7	55	38500	dyschemotherapeutic effect	109 to 113	–	–	–	–
COc1ccc(-c2nc3cc(F)ccc3s2)cc1O [Compound 5, 5-Fluoro-2-(3-hydroxy-4-methoxyphenyl)benzothiazole]	500	–	50	18400	dyschemotherapeutic effect	169 to 172	7600	–	–	–
Fc1ccc2sc(-c3ccc4c(c3)OCO4)nc2c1 [Compound 7, 5-Fluoro-2-(3,4-methylenedioxyphenyl)benzothiazole]	20700	–	570	25100	dyschemotherapeutic effect	161 to 164	22300	–	–	–
CCOc1cc(-c2nc3cc(F)ccc3s2)ccc1OC [Compound 45, 2-(3-Ethoxy-4-methoxyphenyl)-5-fluorobenzothiazole]	80	–	92	5420	dyschemotherapeutic effect	136 to 139	3320	–	–	–
COc1ccc(-c2nc3cc(Br)ccc3s2)cc1OC [Compound 24, 5-Bromo-2-(3,4-dimethoxyphenyl)benzothiazole]	13600	–	770	65200	essentially abolished inhibitory potency	157 to 158	20000	–	–	–
COc1ccc(-c2nc3cc(F)ccc3s2)c(OC)c1OC [Compound 50, 2-(2,3,4-Trimethoxyphenyl)-5-fluorobenzothiazole]	–	157	–	–	–	109 to 110	–	336	2905.3	203
COc1ccc(-c2sc3ccc(F)cc3[n+]2[O-])cc1OC [Compound 53, 2-(3,4-Dimethoxyphenyl)-5-fluorobenzothiazole N-oxide]	920	–	760	> 100000	–	201.4	40300	–	–	–
Oc1ccc(-c2nc3cc(F)ccc3s2)cc1O [Compound 9, 5-Fluoro-2-(3,4-dihydroxyphenyl)benzothiazole]	–	–	–	–	dyschemotherapeutic effect	197	–	–	–	–
COc1ccc(-c2nc3cc(F)ccc3s2)cc1OC(=O)c1ccccc1 [Compound 14, 2-(3-Benzoyloxy-4-methoxyphenyl)-5-fluorobenzothiazole]	–	–	–	–	–	160	–	–	–	–
COc1cc(-c2nc3cc(F)ccc3s2)ccc1O [Compound 6, 5-Fluoro-2-(4-hydroxy-3-methoxyphenyl)benzothiazole]	–	–	–	–	dyschemotherapeutic effect	156	–	–	–	–
COc1ccc(-c2nc3cc(F)ccc3s2)cc1I [Compound 28, 5-Fluoro-2-(3-iodo-4-methoxyphenyl)benzothiazole]	820	–	360	6900	–	167	940	–	–	–
COCOc1ccc(-c2nc3cc(F)ccc3s2)cc1OC [Compound 44, 5-Fluoro-2-(3-methoxy-4-methoxymethyloxyphenyl)benzothiazole]	65	–	48	19200	dyschemotherapeutic effect	101 to 102	53500	–	–	–
COc1ccc(-c2nc3cc(F)ccc3s2)cc1C [Compound 22, 5-Fluoro-2-(4-methoxy-3-methylphenyl)benzothiazole]	48	–	58	18600	–	120	540	–	–	–
COc1ccc(-c2nc3cc(F)ccc3s2)cc1F [Compound 25, 5-Fluoro-2-(3-fluoro-4-methoxyphenyl)benzothiazole]	870	–	640	20600	–	157 to 159	13700	–	–	–
COc1ccc(-c2nc3cc(F)ccc3s2)cc1OC(=O)c1ccccc1Br [Compound 16, 2-[3-(2-Bromobenzoyloxy)-4-methoxyphenyl]-5-fluorobenzothiazole]	–	–	–	–	–	220 to 223	–	–	–	–
COc1ccc(-c2nc3cc(F)ccc3s2)cc1OC(C)=O [Compound 11, 2-(3-Acetoxy-4-methoxyphenyl)-5-fluorobenzothiazole]	–	–	–	–	–	190	–	–	–	–
CCCC(=O)Oc1cc(-c2nc3cc(F)ccc3s2)ccc1OC [Compound 47, 2-(3-Butyroyloxy-4-methoxyphenyl)-5-fluorobenzothiazole]	–	–	–	–	–	125	–	–	–	–
COc1cc(-c2nc3cc(F)ccc3s2)cc(OC)c1OC [Compound 43, 5-Fluoro-2-(3,4,5-trimethoxyphenyl)benzothiazole]	1.9	–	2.1	13000	retained nanomolar inhibitory potency against the MCF-7 cell and MDA 468 cell lines	120 to 122	21100	–	–	–
COc1ccc(-c2nc3cc(F)ccc3s2)cc1Cl [Compound 26, 5-fluoro 2-(3-Chloro-4-methoxyphenyl)benzothiazole]	760	–	480	7050	–	–	2500	–	–	–
COc1ccc(-c2nc3cc(F)ccc3s2)cc1 [Compound 29, 5-Fluoro-2-(4-methoxyphenyl)benzothiazole]	490	–	330	24600	–	123 to 124	12400	–	–	–
COc1ccc(-c2nc3cc(Cl)ccc3s2)cc1OC [Compound 23, 5-Chloro-2-(3,4-dimethoxyphenyl)benzothiazole]	27900	–	1000	12400	essentially abolished inhibitory potency	154 to 155	4880	–	–	–
COc1ccc(-c2nc3cc(F)ccc3s2)cc1OC(=O)N1CCOCC1 [Compound 19, 5-Fluoro-2-[3-(morpholin-4-ylcarbonyloxy)-4-methoxyphenyl]benzothiazole]	–	0.085	–	7140	–	170	7530	0.64	–	–
COc1ccc(-c2nc3cc(F)ccc3s2)cc1OC(=O)c1cccc([N+](=O)[O-])c1 [Compound 17, 5-Fluoro-2-[3-(3-nitrobenzoyloxy)-4-methoxyphenyl]benzothiazole]	–	–	–	–	–	212	–	–	–	–
CCC(=O)Oc1cc(-c2nc3cc(F)ccc3s2)ccc1OC [Compound 13, 5-Fluoro-2-(3-propionyloxy-4-methoxyphenyl)benzothiazole]	–	–	–	–	–	150	–	–	–	–
COc1cc(-c2nc3cc(F)ccc3s2)ccc1OC(=O)N1CCOCC1 [Compound 20, 5-Fluoro-2-[4-(morpholin-4-ylcarbonyloxy)-3-methoxyphenyl]benzothiazole]	–	–	–	–	–	126	–	–	–	–
COc1ccc(-c2nc3cc(F)ccc3s2)cc1OC(=O)c1ccc([N+](=O)[O-])cc1 [Compound 18, 5-Fluoro-2-[3-(4-nitrobenzoyloxy)-4-methoxyphenyl]benzothiazole]	–	–	–	–	–	198	–	–	–	–
COc1cc(OC)cc(-c2nc3cc(F)ccc3s2)c1 [Compound 42, 5-Fluoro-2-(3,5-dimethoxyphenyl)benzothiazole]	1230	–	310	7550	only low micromolar inhibitory potency	115	5210	–	–	–
COc1cc(-c2nc3cc(F)ccc3s2)ccc1OC(=O)c1cccc([N+](=O)[O-])c1 [Compound 21, 5-Fluoro-2-[4-(3-nitrobenzoyloxy)-3-methoxyphenyl]benzothiazole]	–	–	–	–	–	190	–	–	–	–
COc1ccc(-c2nc3cc(F)ccc3s2)cc1OC(=O)c1ccccc1Cl [Compound 15, 2-[3-(2-Chlorobenzoyloxy)-4-methoxyphenyl]-5-fluorobenzothiazole]	–	–	–	–	–	190	–	–	–	–
COc1ccc(-c2nc3cc(F)ccc3s2)cc1Br [Compound 27, 2-(3-Bromo-4-methoxyphenyl)-5-fluorobenzothiazole]	850	–	420	6700	–	173 to 175	3450	–	–	–
